Columns and labels:
Assay type in all cases: binding
PmSiaT [1] = target: T1, PmSiaT (Proteus mirabilis, UniProt B4EZY7); assay: isothermal titration calorimetry; details: 25 °C; 50 mM Tris-HCl, 150 mM NaCl, 0.0174 % DDM, pH 8.0 (at 5 °C); n fixed to 1
T1 construct: gene siaT; detergent-solubilised transporter in DDM; extinction coefficient 76,445
Excerpt: isothermal titration calorimetry on PmSiaT

PmSiaT [2] = target: T1, PmSiaT; assay: nanoDSF thermal shift; details: PBS, 0.0174 % DDM, 2 μM protein, 1.25 mM ligand; shift counted from the Neu5Ac complex
PmSiaT [3] = target: T1, PmSiaT; assay: nanoDSF thermal shift; details: PBS, 0.0174 % DDM, 2 μM protein, 1.25 mM ligand; reference ligand for all shifts

T1 sequence (B4EZY7 whole entry): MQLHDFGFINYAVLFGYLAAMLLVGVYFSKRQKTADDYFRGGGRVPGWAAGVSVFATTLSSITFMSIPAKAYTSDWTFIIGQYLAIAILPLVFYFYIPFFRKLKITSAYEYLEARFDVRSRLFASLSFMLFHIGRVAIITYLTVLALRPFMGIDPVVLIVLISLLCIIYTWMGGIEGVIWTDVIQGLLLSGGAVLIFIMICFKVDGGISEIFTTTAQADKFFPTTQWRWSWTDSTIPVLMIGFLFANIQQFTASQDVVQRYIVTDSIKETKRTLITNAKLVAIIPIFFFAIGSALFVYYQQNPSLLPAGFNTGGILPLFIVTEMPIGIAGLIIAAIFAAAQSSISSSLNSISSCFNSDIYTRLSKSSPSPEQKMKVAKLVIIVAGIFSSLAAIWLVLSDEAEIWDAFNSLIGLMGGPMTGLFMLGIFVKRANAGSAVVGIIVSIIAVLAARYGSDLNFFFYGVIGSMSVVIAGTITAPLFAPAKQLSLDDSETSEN

**Q.** With CC(=O)N[C@H]1[C@H]([C@H](O)[C@H](O)CO)OC(O)(C(=O)O)C[C@@H]1N1CCC(c2cccc(Br)c2)CC1 (stereo partly drawn) [3 f, 5‐Acetamido‐4‐[4‐(3‐bromophenyl)piperidin‐1‐yl]‐3,4,5‐ trideoxy‐D‐glycero‐β‐D‐galacto‐nonulosonic acid] as the compound, how does the Kd (PmSiaT [1]) read?
**A.** Its Kd is 1320 nM.

**Q.** How did the “ΔT m (relative to Neu5Ac)” value (PmSiaT [2]) turn out when CC(=O)N[C@H]1[C@H]([C@H](O)[C@H](O)CO)OC(O)(C(=O)O)C[C@@H]1N1CCC(c2ccc(Br)cc2)CC1 (stereo partly drawn) [3 g, 5‐Acetamido‐4‐[4‐(4‐bromophenyl)piperidin‐1‐yl]‐3,4,5‐ trideoxy‐D‐glycero‐β‐D‐galacto‐nonulosonic acid] was run?
**A.** Its value is “piperidine or piperazine‐linked halogenated aromatic residues showed the largest thermal stabilizations”.

**Q.** How did the “ΔT m (relative to Neu5Ac)” value (PmSiaT [2]) turn out when CC(=O)N[C@H]1[C@H]([C@H](O)[C@H](O)CO)OC(O)(C(=O)O)C[C@@H]1N1CCC(c2cccc(C(F)(F)F)c2)CC1 (stereo partly drawn) [3 h, 5‐Acetamido‐3,4,5‐ trideoxy‐4‐[4‐(3‐trifluoromethylphenyl)piperidin‐1‐yl]‐D‐glycero‐β‐D‐galacto‐nonulosonic acid] was run?
**A.** The value was “piperidine or piperazine‐linked halogenated aromatic residues showed the largest thermal stabilizations”.

**Q.** Which Kd (PmSiaT [1]) does the source give for CC(=O)N[C@H]1[C@H]([C@H](O)[C@H](O)CO)OC(O)(C(=O)O)C[C@@H]1N1CCC(c2cccc(O)c2)CC1 (stereo partly drawn) [3 i, 5‐Acetamido‐4‐[4‐(3‐hydroxyphenyl)piperidin‐1‐yl]‐3,4,5‐ trideoxy‐D‐glycero‐β‐D‐galacto‐nonulosonic acid] here?
**A.** The Kd was 17900 nM.

**Q.** CC(=O)N[C@H]1[C@H]([C@H](O)[C@H](O)CO)OC(O)(C(=O)O)C[C@@H]1N1CCN(C(=O)c2cccc(Cl)c2Cl)CC1 (stereo partly drawn) [6 c, 5‐Acetamido‐4‐[4‐(2,3‐dichlorobenzoyl)piperazin‐1‐yl]‐3,4,5‐ trideoxy‐D‐glycero‐β‐D‐galacto‐nonulosonic acid] was tested. Which Kd (PmSiaT [1]) did it give?
**A.** Its Kd is 470 nM.

**Q.** CC(=O)N[C@H]1[C@H]([C@H](O)[C@H](O)CO)OC(O)(C(=O)O)C[C@@H]1O (stereo partly drawn) [Neu5Ac] was tested. Which ΔT m (PmSiaT [3]) did it give?
**A.** The ΔT m was “The ΔT m reported are given in °C and relative to Neu5Ac”.
